From US20250092065A1, “2-(INDAZOL-5-YL)-6-(PIPERIDIN-4-YL)-1,7-NAPHTHYRIDINE DERIVATIVES AND RELATED COMPOUNDS AS MODULATORS FOR SPLICING NUCLEIC ACIDS AND FOR THE TREATMENT OF PROLIFERATIVE DISEASES” (REMIX THERAPEUTICS INC., priority 2022, published 2025) come the findings set out here.

Read-outs that look alike come from different tables or passages of the source.

One data set deals with Target C. The data set can be described thus: HiBiT protein abundance assay, Target C (K562 HiBiT knock-in). Conditions: HiBiT knock-in K562 cells, 24 hours, top dose 10 μM. The data set is classed as cell-based, human. Put shortly:
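K562 HiBiT knock-in cells (10000/well) were treated 24 h at 37° C with a 10-point 3-fold dilution series (top 10 μM final, ≤0.25% DMSO). HiBiT luminescence was read after lytic LgBiT detection. Percent response used unmodified K562 and DMSO-treated knock-in controls, and IC50 came from a four-parameter fit at 50% of untreated.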

A further data set has as its system K562 cells. The data set can be described thus: Cell Titer Glo 2.0 cell viability (toxicity) assay, K562. Particulars: 500 cells/well, 72 hours.
The next data set has as its system MYB mRNA. The data set can be described thus: RT-qPCR splicing assay, MYB mRNA canonical (CJ) and alternative (AJ) junction. The data set is classed as cell-based, human. Particulars: Homo sapiens; for AC50: MYB alternative junction mRNA, read-out: MYB AJ (increase in AJ mRNA, AC50). Put shortly:
(§1)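 Junction-specific RT-qPCR read-out: CJ and AJ isoform levels, housekeeper-normalized (GAPDH/GUSB/PPIA), ΔΔCt vs DMSO, converted to RQ then % response. Cells: A673 (DMEM/10% FBS, adhered 24 h) or K562 (IMDM/10% FBS). Compound 11-pt 3-fold, top 10 uM, 24 h, 37 °C.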

In another data set the test system is HTT. The data set can be described thus: HiBiT protein abundance assay, HTT (K562 HiBiT knock-in). The data set is classed as cell-based, human. Particulars: HiBiT knock-in K562 cells, 24 hours, top dose 10 μM. Put shortly:
(§2)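 Endogenously HiBiT-tagged K562 lines were treated for 24 h at 37 °C with 10-point 3-fold dilutions (top 10 μM final, DMSO ≤0.25%). Lytic LgBiT complementation luminescence was normalized between unmodified K562 (PC) and DMSO-treated tagged cells (NC); IC50 was interpolated at 50% from a four-parameter logistic fit.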

A further data set concerns SMN2 mRNA. The data set can be described thus: RT-qPCR splicing assay, SMN2 mRNA. The data set is classed as cell-based, human. Particulars: Homo sapiens, canonical junction qPCR panel, Table 4; read-out: SMN2 IC50 (decrease in CJ mRNA levels). The gist of the method:
as §1

The next data set relates to HTT mRNA. The data set can be described thus: RT-qPCR splicing assay, HTT mRNA canonical (CJ) and alternative (AJ) junction. The data set is classed as cell-based, human. Particulars: Homo sapiens; for AC50: HTT alternative junction mRNA, read-out: HTT AJ (increase in AJ mRNA, AC50). Put shortly: as §1
For a further data set, the system named is MYB. The data set can be described thus: HiBiT protein abundance assay, MYB (K562 HiBiT knock-in). The data set is classed as cell-based, human. Conditions: HiBiT knock-in K562 cells, 24 hours, top dose 10 μM. The gist of the method:
as §2

[1] abbreviates: MYB canonical junction mRNA, RT-qPCR, read-out: MYB CJ (decrease in CJ mRNA levels, IC50).
[2] abbreviates: canonical junction qPCR panel, Table 4, read-out: MYB IC50 (decrease in CJ mRNA levels).
Setting [3] is: HTT canonical junction mRNA, RT-qPCR, read-out: HTT CJ (decrease in CJ mRNA levels, IC50).
Where [4] appears, read: canonical junction qPCR panel, Table 4, read-out: HTT IC50 (decrease in CJ mRNA levels).

Turning to `Cn1cc2cc(-c3ccc4nc(N5CC[C@@H](NC6CCC6)C5)ccc4n3)c(O)cc2n1` [Compound 157], the concentration for half-maximal inhibition (IC50) in the data set with Target C was 100 to 1000 nM; with MYB mRNA (setting [1]), below 100 nM; in the data set with MYB mRNA (setting [2]), below 100 nM; in the data set on HTT, below 100 nM; with SMN2 mRNA, below 100 nM; in the data set with HTT mRNA (setting [3]) it was below 100 nM. For the same compound, the half-inhibitory concentration (IC50) with HTT mRNA (setting [4]) and in the data set with MYB was below 100 nM throughout. Also, the “Effect of Exemplary Compounds on Cell Viability, K562” value (from here on “Effect of Exemplary Compounds”) in the data set on K562 cells is listed as “B (B represents 100-1000 nM)”. The AC50 in the data set on MYB mRNA (RT-qPCR) and in the data set on HTT mRNA (RT-qPCR) was below 100 nM each time.
`Cn1cc2cc(-c3ccc4nc(N5CCC(NC6CC6)C5)ccc4n3)c(O)cc2n1` (stereo not shown) [Compound 158]: the half-inhibitory concentration (IC50) was 100 to 1000 nM in the data set with Target C; below 100 nM in the data set on MYB mRNA (setting [1]); below 100 nM with MYB mRNA (setting [2]); below 100 nM in the data set on HTT; below 100 nM in the data set on SMN2 mRNA; below 100 nM in the data set on HTT mRNA (setting [3]). Moreover, the IC50 in the data set with HTT mRNA (setting [4]) and in the data set with MYB was below 100 nM each time. Also, the “Effect of Exemplary Compounds” value with K562 cells was “B (B represents 100-1000 nM)”. For the same compound, the AC50 in the data set with MYB mRNA (RT-qPCR) and with HTT mRNA (RT-qPCR) was below 100 nM in each case.
Consider `Cn1cc2cc(-c3ccc4nc(OC5CNC5)ccc4n3)c(O)cc2n1` [Compound 159], for which the IC50 in the data set on Target C lay in the range of 1000 to 10000 nM; in the data set with MYB mRNA (setting [1]) it was 1000 to 10000 nM; in the data set on MYB mRNA (setting [2]), 1000 to 10000 nM; in the data set on HTT it was 100 to 1000 nM; in the data set with SMN2 mRNA, 100 to 1000 nM; in the data set with HTT mRNA (setting [3]) it was 1000 to 10000 nM. Further, the IC50 in the data set with HTT mRNA (setting [4]) was 1000 to 10000 nM; with MYB, 100 to 1000 nM. Moreover, the “Effect of Exemplary Compounds” value with K562 cells was “C (C represents 1000-9999 nM)”. Further, the AC50 with MYB mRNA (RT-qPCR) and in the data set with HTT mRNA (RT-qPCR) was 1000 to 10000 nM each time.
As for `Cn1cc2cc(-c3ccc4nc(N5CC[C@]67CCN[C@H]6CC[C@H]57)ccc4n3)c(O)cc2n1` [Compound 160], the half-inhibitory concentration (IC50) with Target C is 100 to 1000 nM; in the data set on MYB mRNA (setting [1]), 100 to 1000 nM; in the data set with MYB mRNA (setting [2]), 100 to 1000 nM; in the data set on HTT, 100 to 1000 nM; in the data set on SMN2 mRNA, below 100 nM; with HTT mRNA (setting [3]), 100 to 1000 nM. In addition, the IC50 in the data set on HTT mRNA (setting [4]) and in the data set on MYB was 100 to 1000 nM throughout. Further, the “Effect of Exemplary Compounds” value in the data set with K562 cells was “B (B represents 100-1000 nM)”. The half-maximal activity concentration (AC50) in the data set with MYB mRNA (RT-qPCR) and with HTT mRNA (RT-qPCR) was 100 to 1000 nM in each case.
For the compound `COc1cc2ccncc2cc1-c1ccc2nc(N3CCC(NC(C)(C)C)C3)ccc2n1` (stereo not shown) [Compound 161], the IC50 in the data set with Target C was above 10000 nM; in the data set with MYB mRNA (setting [1]), above 10000 nM; in the data set on MYB mRNA (setting [2]) it was above 10000 nM; in the data set with HTT, above 10000 nM; with SMN2 mRNA, 1000 to 10000 nM; in the data set on HTT mRNA (setting [3]), above 10000 nM. The IC50 with HTT mRNA (setting [4]) and in the data set on MYB was above 10000 nM in each case. The “Effect of Exemplary Compounds” value in the data set with K562 cells is reported as “C (C represents 1000-9999 nM)”. In addition, the concentration at half-maximal activity (AC50) in the data set with MYB mRNA (RT-qPCR) and in the data set with HTT mRNA (RT-qPCR) was above 10000 nM throughout.
Regarding `Cn1cc2cc(-c3ccc4nc(N5CCC56CCNC6)ccc4n3)c(O)cc2n1` (stereo not shown) [Compound 162], the IC50 in the data set on Target C is above 10000 nM; with MYB mRNA (setting [1]) it was above 10000 nM; in the data set with MYB mRNA (setting [2]), above 10000 nM; in the data set on HTT, above 10000 nM; in the data set on SMN2 mRNA, 1000 to 10000 nM; in the data set on HTT mRNA (setting [3]), above 10000 nM. Further, the IC50 with HTT mRNA (setting [4]) and in the data set with MYB was above 10000 nM each time. Also, in the data set with K562 cells, the “Effect of Exemplary Compounds” value was “C (C represents 1000-9999 nM)”. Also, the concentration at half-maximal activity (AC50) in the data set on MYB mRNA (RT-qPCR) and with HTT mRNA (RT-qPCR) was above 10000 nM each time.
With `Cn1cc2cc(-c3ccc4nc(N5CCC56CCCNC6)ccc4n3)c(O)cc2n1` (stereo not shown) [Compound 163], the IC50 is above 10000 nM with Target C; 1000 to 10000 nM with MYB mRNA (setting [1]); 1000 to 10000 nM with MYB mRNA (setting [2]); 1000 to 10000 nM in the data set with HTT; 100 to 1000 nM in the data set on SMN2 mRNA; above 10000 nM in the data set with HTT mRNA (setting [3]). The 50% inhibitory concentration (IC50) with HTT mRNA (setting [4]) was above 10000 nM; in the data set on MYB, 1000 to 10000 nM. In the data set on K562 cells, the “Effect of Exemplary Compounds” value is recorded as “C (C represents 1000-9999 nM)”. The concentration at half-maximal activity (AC50) is 1000 to 10000 nM with MYB mRNA (RT-qPCR) and above 10000 nM with HTT mRNA (RT-qPCR).
Turning to `Cn1cc2cc(-c3ccc4nc(N5CCC56CCNCC6)ccc4n3)c(O)cc2n1` [Compound 164], the IC50 with Target C, in the data set on MYB mRNA (setting [1]), in the data set with MYB mRNA (setting [2]), in the data set on HTT, with SMN2 mRNA and with HTT mRNA (setting [3]) was 100 to 1000 nM throughout. Moreover, the IC50 in the data set with HTT mRNA (setting [4]) and with MYB was 100 to 1000 nM in each case. For the same compound, the “Effect of Exemplary Compounds” value in the data set on K562 cells is given as “B (B represents 100-1000 nM)”. Further, the half-maximal activity concentration (AC50) in the data set on MYB mRNA (RT-qPCR) and with HTT mRNA (RT-qPCR) was 100 to 1000 nM in each case.
